Results: ChEMBL document CHEMBL1124372, “Thienothiopyran-2-sulfonamides: novel topically active carbonic anhydrase inhibitors for the treatment of glaucoma” (J Med Chem, 1989)
Several values for one entry are separate records, joined by “and”; a condition that tells them apart may be missing. Equal entries are not always repeated.

Experiments:
[1] = molecular target: T1, Carbonic anhydrase 2 (Homo sapiens, UniProt P00918)
[2] = species on record: Oryctolagus cuniculus; experiment: Maximum fall in ocular hypertension in the right eye of albino rabbits; type: functional
[3] = molecular target: T1, Carbonic anhydrase 2; remark: listed apart in the source
[4] = molecular target: T1, Carbonic anhydrase 2; remark: listed apart in the source
[5] = Binding of 10 phosphate buffer; type: protein assay; conditions: Bos taurus
[6] = The aqueous solubility in 2% solution was determined; soluble; type: physicochemical; conditions: buffer
[7] = The aqueous solubility in 2% (+ = soluble, - = insoluble) solution was determined; type: physicochemical; conditions: buffer
[8] = The aqueous solubility in 2% solution was determined; insoluble; type: physicochemical; conditions: buffer

Row | IC50 [1] [nM] | IC50 [3] [nM] | Ki [4] [nM] | Binding [5] | Aqueous solubility [6] | Aqueous solubility [7] | Aqueous solubility [8] | SMILES | Activity [2] [mmHg]
1 | 9.2 | 3.2 | 3.7 | 32.1% | Soluble | – | – | Cl.NC1CCS(=O)(=O)c2sc(S(N)(=O)=O)cc21 (stereo not drawn) | -3.3
2 | – | – | – | 12.3% and 12.8% | – | – | – | CC(C)CN[C@H]1CCS(=O)(=O)c2sc(S(N)(=O)=O)cc21 | –
3 | 13.9 | 2.5 | 2.3 | 23.7% | – | Soluble | – | CNC1CCS(=O)(=O)c2sc(S(N)(=O)=O)cc21.Cl (stereo not drawn) | -3.3
4 | – | – | – | – | Soluble | – | – | CC(C)CN[C@H]1CCS(=O)(=O)c2sc(S(N)(=O)=O)cc21 [SEZOLAMIDE] | -4.3
5 | – | – | – | 1.9% | Soluble | – | – | NS(=O)(=O)c1cc2c(s1)S(=O)(=O)CCC2O (stereo not drawn) | -6.9
6 | 70 | 12.3 | 9.3 | 9% | Soluble | – | – | CCN(CC)C1CCS(=O)(=O)c2sc(S(N)(=O)=O)cc21.Cl (stereo not drawn) | -5.3
7 | – | – | – | – | Soluble | – | – | CC(C)CN[C@H]1CCS(=O)(=O)c2sc(S(N)(=O)=O)cc21.Cl [SEZOLAMIDE HYDROCHLORIDE] | -6.5
8 | 9.2 | 1.5 | 1.1 | 19.8% | – | – | Insoluble | CCCNC1CCS(=O)(=O)c2sc(S(N)(=O)=O)cc21.Cl (stereo not drawn) | -8.7
9 | – | – | – | 29.2% | Soluble | – | – | CCNC1CCS(=O)(=O)c2sc(S(N)(=O)=O)cc21.Cl (stereo not drawn) | -4.2
10 | 12.4 | 2.3 | 1.8 | 25.6% | – | – | Insoluble | CCCCNC1CCS(=O)(=O)c2sc(S(N)(=O)=O)cc21.Cl (stereo not drawn) | -5.7
11 | – | – | – | – | Soluble | – | – | CC(C)CN[C@@H]1CCS(=O)(=O)c2sc(S(N)(=O)=O)cc21.Cl | -1.3
